# Experimental data: patent US8604046B2, “Substituted piperidine spiro pyrrolidinone and piperidinone, preparation and therapeutic use thereof” (Sanofi, priority 2008, dated 2013)
# pKi: −log10 of the molar value.
# Key:
# [1] = target: T1, rhesus H3 receptor (Macaca mulatta, UniProt Q865E1); assay: Rhesus H3 [3H]-methylhistamine radioligand binding assay; parameters: species or system rhesus monkey (Macacca Mulatta); conditions: [3H]-Methylhistamine 2 nM, rhesus H3 membranes, WGA SPA beads, Cheng-Prusoff
# Description: (§1) Rhesus H3 membranes were prepared from the Flp-In T-REx 293 Cell Line (Invitrogen) stably transfected with pcDNA5/FRT/TO (Invitrogen) containing the rhesus monkey (Macacca Mulatta) 445 amino acid H3 receptor. (Genbank #AY231164). Stably transfected cultures were amplified in tissue culture flasks by standard tissue culture methods and induced to express rhesus H3 by exposure to 500 ng/ml tetracycline (Cellgro) for 24 hours. After induction, cells were dissociated from flasks utilizing Cell Stripper (Cellgro). Cells were centrifuged (1K×g, 5 min) and pellet frozen in an ethanol-dry ice bath to disrupt cell membranes. Frozen cell pellet was re-suspended in 5 mM HEPES (pH 7.4, Invitrogen) at 10 ml/1000 cm2 of harvested cells. The cell suspension was drawn through an 18 gauge needle (2-3×) followed by a 23 gauge needle (2-3×) to further disrupt cell membranes. The cell suspension was centrifuged (40K×g, 30 min). Cell membrane pellet was re-suspended in 5 mM HEPES (pH 7.4, Invitrogen) at a final protein concentration of 10 mg/ml. Rhesus H3 membranes were stored under liquid nitrogen prior to use in [3H]-Methylhistamine and GTP S radioligand binding assays.
# Rhesus H3 radioligand binding assay was performed using rhesus H3 receptor membranes (prepared as described above), [3H]-Methylhistamine (Perkin Elmer) and WGA SPA beads (wheat germ agglutinin scintillation proximity assay) beads (Amersham). The assay was performed in 96-well Opti-Plates (Packard). Each reaction contained 50 μl rhesus H3 membranes (20-30 μg total protein), 50 μl WGA SPA beads (0.1 μg) and 50 μl of 83 Ci/mmol [^3H]-Methylhistamine (final concentration 2 nM) and 50 μl of tested compound. The compounds of this invention and/or vehicle were diluted with binding buffer from 10 mM DMSO stocks. Assay plates were sealed with TopSeal (Perkin Elmer) and mixed on shaker (25° C., 1 hour). Assay plates were read on TopCount scintillation counter (Packard). Results were analyzed by Hill transformation and Ki values were determined by Cheng-Prusoff equation.
# [2] = target: T1, rhesus H3 receptor; assay: GTPγS radioligand binding assay, inhibition of rhesus H3 constitutive functional activity (inverse agonism); type: biochemical, rhesus monkey (Macacca Mulatta); parameters: concentration or dose not given beside the values; conditions: rhesus H3 cell membranes, relative to basal levels
# Description: as §1
# T1 sequence (Q865E1 1-445): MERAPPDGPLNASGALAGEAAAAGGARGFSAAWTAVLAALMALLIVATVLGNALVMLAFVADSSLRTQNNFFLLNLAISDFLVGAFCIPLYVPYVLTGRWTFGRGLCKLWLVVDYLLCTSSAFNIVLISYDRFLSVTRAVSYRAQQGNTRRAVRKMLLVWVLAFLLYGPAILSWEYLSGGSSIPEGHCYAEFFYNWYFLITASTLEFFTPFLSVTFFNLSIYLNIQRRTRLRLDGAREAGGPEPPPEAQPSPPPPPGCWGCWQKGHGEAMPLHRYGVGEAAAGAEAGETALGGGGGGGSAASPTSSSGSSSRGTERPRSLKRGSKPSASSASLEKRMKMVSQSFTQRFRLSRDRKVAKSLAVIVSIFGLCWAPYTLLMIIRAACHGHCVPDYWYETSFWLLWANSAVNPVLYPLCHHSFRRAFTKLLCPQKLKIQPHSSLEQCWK
Structure (SMILES),pKi [1],Inverse Agonism: % inhibition of Basal GTPγS binding in Rhesus H3 [2]
"C[C@H]1CCCN1C1CCN(c2ccc(N3CCC4(CCNCC4)C3=O)c(C(F)(F)F)c2)CC1.Cl [Example 45, 2-{4-[4-(2S-2-Methyl-pyrrolidin-1-yl)-piperidin-1-yl]-2-trifluoromethyl-phenyl}-2,8-diaza-spiro[4.5]decan-1-one Hydrochloride]",9.82,−19%
"Cc1cc(N2CC[C@H](N3CCC[C@H]3C)C2)ccc1N1CCC2(CCN(C(=O)OC(C)(C)C)CC2)C1=O [Example 1, 2-[2-Methyl-4-((2R,3′S)-2-methyl-[1,3′]bipyrrolidinyl-1′-yl)-phenyl]-1-oxo-2,8-diaza-spiro[4.5]decane-8-carboxylic acid tert-butyl ester]",6.88,−24%
"Cc1cc(N2CC[C@H](N3CCC[C@@H]3C)C2)ccc1N1CCCC2(CCN(CC3CCCCC3)CC2)C1=O [Example 33, 9-Cyclohexylmethyl-2-[2-methyl-4-((2S,3′S)-2-methyl-[1,3′]bipyrrolidinyl-1′-yl)-phenyl]-2,9-diaza-spiro[5.5]undecan-1-one]",9.70,−14%
"C[C@H]1CCCN1[C@H]1CCN(c2ccc(N3CCC4(CCN(C(=O)c5ccoc5)CC4)C3=O)c(C(F)(F)F)c2)C1 [Example 64, 8-(Furan-3-carbonyl)-2-[4-((2S,3′S)-2-methyl-[1,3′]bipyrrolidinyl-1′-yl)-2-trifluoromethyl-phenyl]-2,8-diaza-spiro[4.5]decan-1-one]",8.02,−19%
"Cc1cc(N2CC[C@@H](N3CCC[C@H]3C)C2)ccc1N1CCC2(CCN(C(=O)c3ccc(OC(F)(F)F)cc3)CC2)C1=O [Example 16, 2-[2-Methyl-4-((2R,3′R)-2-methyl-[1,3′]bipyrrolidinyl-1′-yl)-phenyl]-8-(4-trifluoromethoxy-benzoyl)-2,8-diaza-spiro[4.5]decan-1-one]",7.00,−13%
"Cc1cc(N2CC[C@@H](N3CCC[C@H]3C)C2)ccc1N1CCC2(CCN(C(=O)OC(C)(C)C)CC2)C1=O [Example 2, 2-[2-Methyl-4-((2R,3′R)-2-methyl-[1,3′]bipyrrolidinyl-1′-yl)-phenyl]-1-oxo-2,8-diaza-spiro[4.5]decane-8-carboxylic acid tert-butyl ester]",6.61,−30%
"Cc1cc(N2CCC(N3CCCC3C)C2)ccc1N1CCC2(CCN(C(=O)OC(C)(C)C)CC2)C1=O (centres unmarked) [Example 5, 2-[2-Methyl-4-(2-methyl-[1,3′]bipyrrolidinyl-1′-yl)-phenyl]-1-oxo-2,8-diaza-spiro[4.5]decane-8-carboxylic acid tert-butyl ester]",7.74,−13%
"Cc1cc(N2CC[C@H](N3CCC[C@@H]3C)C2)ccc1N1CCC2(CCNCC2)C1=O [Example 6, 2-[2-Methyl-4-((2S,3′S)-2-methyl-[1,3′]bipyrrolidinyl-1′-yl)-phenyl]-2,8-diaza-spiro[4.5]decan-1-one]",7.96,−22%
"Cc1cc(N2CC[C@H](N3CCC[C@H]3C)C2)ccc1N1CCC2(CCN(CC3CCCC3)CC2)C1=O [Example 10, 8-Cyclopentyl methyl-2-[2-methyl-4-((2R,3′S)-2-methyl-[1,3′]bipyrrolidinyl-1′-l)-phenyl]-2,8-diaza-spiro[4.5]decan-1-one]",7.92,−26%
"C[C@H]1CCCN1[C@H]1CCN(c2ccc(N3CCC4(CCN(Cc5ccco5)CC4)C3=O)c(C(F)(F)F)c2)C1 [Example 66, 8-Furan-2-ylmethyl-2-[4-((2S,3′S)-2-methyl-[1,3′]bipyrrolidinyl-1′-yl)-2-trifluoromethyl-phenyl]-2,8-diaza-spiro[4.5]decan-1-one]",8.26,−19%
"C[C@H]1CCCN1C1CCN(c2ccc(N3CCC4(CCN(C(=O)OC(C)(C)C)CC4)C3=O)cc2)CC1 [Example 38, 2-{4-[4-(2S-2-Methyl-pyrrolidin-1-yl)-piperidin-1-yl]-phenyl}-1-oxo-2,8-diaza-spiro[4,5]decane-8-carboxylic acid tert-butyl ester]",11.10,−25%
"Cc1cc(N2CC[C@H](N3CCC[C@@H]3C)C2)ccc1N1CCCC2(CCN(C(=O)c3ccoc3)CC2)C1=O [Example 27, 9-(Furan-3-carbonyl)-2-[2-methyl-4-((2S,3′S)-2-methyl-[1,3′]bipyrrolidinyl-1′-yl)-phenyl]-2,9-diaza-spiro[5.5]undecan-1-one]",8.80,−19%
"C[C@H]1CCCN1C1CCN(c2ccc(N3CCC4(CCN(C(=O)OC(C)(C)C)CC4)C3=O)c(C(F)(F)F)c2)CC1 [Example 39, 2-{4-[4-(2S-2-Methyl-pyrrolidin-1-yl)-piperidin-1-yl]-2-trifluoromethyl-phenyl}-1-oxo-2,8-diaza-spiro[4.5]decane-8-carboxylic acid tert-butyl ester]",9.05,−22%
"C[C@H]1CCCN1[C@H]1CCN(c2ccc(N3CCCC4(CCN(C(=O)C5CCOCC5)CC4)C3=O)c(F)c2)C1 [Example 31, 2-[2-Fluoro-4-((2S,3′S)-2-methyl-[1,3′]bipyrrolidinyl-1′-yl)-phenyl]-9-(tetrahydro-pyran-4-carbonyl)-2,9-diaza-spiro[5.5]undecan-1-one]",9.40,−19%
"C[C@H]1CCCCN1[C@H]1CCN(c2ccc(N3CCC4(CCNCC4)C3=O)c(C(F)(F)F)c2)C1.Cl [Example 48, 2-{4-[3-((2S,3′S)-2-Methyl-piperidin-1-yl)-pyrrolidin-1-yl]-2-trifluoromethyl-phenyl}-2,8-diaza-spiro[4.5]decan-1-one Hydrochloride]",9.22,−24%
"Cc1cc(N2CC[C@@H](N3CCC[C@@H]3C)C2)ccc1N1CCC2(CCNCC2)C1=O.Cl [Example 9, 2-[2-Methyl-4-((2S,3′R)-2-methyl-[1,3′]bipyrrolidinyl-1′-yl)-phenyl]-2,8-diaza-spiro[4.5]decan-1-one Hydrochloride]",9.22,−35%
"C[C@H]1CCCN1C1CCN(c2ccc(N3CCC4(CCN(C(=O)C5CCCCC5)CC4)C3=O)c(F)c2)CC1 [Example 52, 8-Cyclohexanecarbonyl-2-{2-fluoro-4-[4-(2S-2-methyl-pyrrolidin-1-yl)-piperidin-1-yl]-phenyl}-2,8-diaza-spiro[4.5]decan-1-one]",9.70,−24%
C[C@H]1CCCN1[C@H]1CCN(c2ccc(N3CCCC4(CCN(C(=O)c5ccc(F)cc5)CC4)C3=O)cc2)C1 [Example 29],9.40,−17%
"C[C@H]1CCCN1[C@H]1CCN(c2ccc(N3CCC4(CCN(C(=O)c5ccccc5)CC4)C3=O)c(C(F)(F)F)c2)C1 [Example 63, 8-Benzoyl-2-[4-((2S,3′S)-2-methyl-[1,3′]bipyrrolidinyl-1′-yl)-2-trifluoromethyl-phenyl]-2,8-diaza-spiro[4.5]decan-1-one]",7.19,−18%
"Cc1cc(N2CC[C@H](N3CCC[C@@H]3C)C2)ccc1N1CCCC2(CCN(C(=O)OC(C)(C)C)CC2)C1=O [Example 20, 2-[2-Methyl-4-((2S,3′S)-2-methyl-[1,3′]bipyrrolidinyl-1′-yl)-phenyl]-1-oxo-2,9-diaza-spiro[5.5]undecane-9-carboxylic acid tert-butyl ester]",8.17,−18%
"C[C@H]1CCCN1C1CCN(c2ccc(N3CCC4(CCN(C(=O)OC(C)(C)C)CC4)C3=O)c(F)c2)CC1 [Example 40, 2-{4-[4-(2S-2-Methyl-pyrrolidin-1-yl)-piperidin-1-yl]-2-fluoro-phenyl}-1-oxo-2,8-diaza-spiro[4.5]decane-8-carboxylic acid tert-butyl ester]",,−21%
